Data reported in paper PMC8497620, “Structure and inhibition of Cryptococcus neoformans sterylglucosidase to develop antifungal agents” (Nature Communications, 2021).
Values joined by “and” are separate entries in the source; they are usually repeats but may differ in a detail not shown here. Equal values may be shown once. “Also recorded” adds a separate entry of the source.

Experiments:
[1] = system: C. neoformans H99; format: in vivo, Cryptococcus neoformans; details: Hit 1 intranasally, fluconazole intraperitoneally
Experimental: For animal studies, 4-week-old CBA/J (Envigo) female mice were used. Mouse experiments were performed in full compliance with a protocol approved by Stony Brook University (IACUC number 341588) and in compliance with the United States Animal Welfare Act (Public Law 98–198). The experiments were carried out in facilities accredited by the Association for Assessment and Accreditation of Laboratory Animal Care. Mice were divided into sets of 12 mice for each treatment or control group (4 animals per cage) kept in an animal room (temperature, 22–24 °C; relative humidity, 35–45%) with artificial 12–12 h dark/light cycle. For the experiment with intraperitoneal (i.p.) treatment, mice were infected intranasally with 10 µL of a suspension containing 1 × 10^6 C. neoformans H99 cells and subsequently treated through i.p. injection with 10 mg/kg/day of hit 1 in a final volume of 100 µL of vehicle containing 10% PEG 200 in PBS. The untreated animals received 100 µL of vehicle. For the experiment with intranasal (i.n.) treatment, mice were infected with 1 × 10^5 C. neoformans H99 cells and received i.n. treatment with hit 1 in a final volume of 10 µL. Another group received treatment with 10 mg/kg/day of fluconazole i.p. and a third group received the combined treatment of hit1 by i.n. and fluconazole by i.p. Animals receiving only vehicle i.n. were used as a control group. In both experiments, three mice of each group were euthanized at day 3, 6, 9, and 14 post infection for CFU recovery from lungs and CFU recovery from brain on day 14.

[2] = target: T1, C. neoformans Sgl1 (Cryptococcus neoformans var. grubii, UniProt J9W473); test: Sgl1 inhibition with res-glp substrate (HTS, single-compound dose-response); format: biochemical; details: res-glp as substrate (100 µM), primary screen; read-out: IC50 against Sgl1
Experimental: Resorufin-3β-D-glucopyranoside (res-glp, Sigma-Aldrich) enzyme kinetic assays were performed according to methods described by Urban et al.[16] with modifications. Reaction buffer contained 50 mM citric acid, 176 mM K2HPO4, pH 6, 0.01% Tween-20, and 10 mM sodium taurocholate. The reactions were carried out in black 96-well plates using 20 ng of enzyme with 100 μM res-glp substrate. In all, 10 μL/well of res-glp substrate was added to each well and the reaction was initiated by adding 20 μL enzyme (20 ng). After incubation at 37 °C for 30–40 min, the fluorescence was read at an excitation of 570 (±10) nm and an emission of 610 (±10) nm on a VersaMax™ Microplate Reader from Molecular Devices. A standard curve was prepared with serial dilutions of the free fluorophore, resorufin, in the same volume of assay buffer.
A ChemBridge DIVERSet-CL library (San Diego, CA) containing 50,000 compounds was screened to identify small molecules that inhibit C. neoformans Sgl1. The library was prepared in a 96-well plate format containing a cocktail of 10 compounds per well at 1 mM each in 100% DMSO. The cocktail plates were first diluted to 100 μM each (1:10 dilution in Dulbecco’s phosphate-buffered saline, DPBS) resulting in 10% DMSO. In order to screen the compound cocktails at […] in 1% DMSO in a final reaction volume of 30 μL an aliquot of 3 μL was added to 17 μL of buffer containing 20 ng of enzyme and the reaction was started adding 10 μL of 100 μM res-glp. A negative control without enzyme and positive controls with and without DMSO were prepared. The plates were incubated at 37 °C for 40 min.
The Z′-factor was used for the assessment of the efficiency of the HTS assay for each individual plate. Values greater than 0.5 has been considered as an indicator of an excellent screening assay quality.

[3] = system: human lung epithelial cancer cell line A549; details: A549 cells, 24 h, MTT
Experimental: The cells were maintained in Dulbecco’s modified eagle medium containing 10% fetal bovine serum and 1% penicillin–streptomycin. At passage 11, 10^5 cells were transferred into each well of 96-well plates and cultured for 18–24 h for the cells to adhere to the well surface. After, the medium was removed and a fresh medium containing the selected compounds at a concentration range of 1–512 μM were added to the wells. Controls with equivalent serial concentrations of DMSO were also evaluated and compared with a control without DMSO. The plate was incubated at 37 °C with 5% CO2. After 24 h, the supernatant was removed and 50 μL of 5 mg/mL 3-(4,5-dimethylthiazol-2-yl)-2,5-diphenyltetrazoliumbromide (MTT) solution in phosphate-buffered saline (PBS) was added to each well. The plates were incubated for an additional 4 h and the formazan crystals formed inside the cell was dissolved by adding 50 μL DMSO.

[4] = target: T1, C. neoformans Sgl1; test: Enzymatic evaluation of C. neoformans Sgl1 against the fungal glucosylceramide (LC-MS); format: biochemical; details: 10 μg substrate, 10 or 50 μg Sgl1, pH 5.5, 37 °C, 4 h
Experimental: (§1) To verify the enzymatic activity of C. neoformans Sgl1 against the fungal long-chain glucosylceramide (GlcCer, OH-Δ8,9-methyl-glucosylceramide), kindly provided by Khojin (Japan). The reactions used 10 μg of substrate and 10 or 50 μg of C. neoformans Sgl1 or cerezyme (Genzyme Corporation, Cambridge, MA, USA) in 100 μL acetate buffer pH 5.5 incubated at 37 °C for 4 h[11]. The reaction was terminated by adding 300 μL of chloroform/methanol (1:1 ratio) and the lower phase was collected and dried. 9-Methyl-ceramide production was monitored by liquid chromatography-mass spectrometry (LC-MS).

[5] = Hydrolysis of fungal long-chain glucosylceramide by cerezyme (9-methyl-ceramide by LC-MS); format: biochemical; details: 4 h; for 9-methyl ceramide: 10 μg fungal GlcCer, 37 °C
Experimental: as §1

T1 sequence (J9W473 entry or part of it): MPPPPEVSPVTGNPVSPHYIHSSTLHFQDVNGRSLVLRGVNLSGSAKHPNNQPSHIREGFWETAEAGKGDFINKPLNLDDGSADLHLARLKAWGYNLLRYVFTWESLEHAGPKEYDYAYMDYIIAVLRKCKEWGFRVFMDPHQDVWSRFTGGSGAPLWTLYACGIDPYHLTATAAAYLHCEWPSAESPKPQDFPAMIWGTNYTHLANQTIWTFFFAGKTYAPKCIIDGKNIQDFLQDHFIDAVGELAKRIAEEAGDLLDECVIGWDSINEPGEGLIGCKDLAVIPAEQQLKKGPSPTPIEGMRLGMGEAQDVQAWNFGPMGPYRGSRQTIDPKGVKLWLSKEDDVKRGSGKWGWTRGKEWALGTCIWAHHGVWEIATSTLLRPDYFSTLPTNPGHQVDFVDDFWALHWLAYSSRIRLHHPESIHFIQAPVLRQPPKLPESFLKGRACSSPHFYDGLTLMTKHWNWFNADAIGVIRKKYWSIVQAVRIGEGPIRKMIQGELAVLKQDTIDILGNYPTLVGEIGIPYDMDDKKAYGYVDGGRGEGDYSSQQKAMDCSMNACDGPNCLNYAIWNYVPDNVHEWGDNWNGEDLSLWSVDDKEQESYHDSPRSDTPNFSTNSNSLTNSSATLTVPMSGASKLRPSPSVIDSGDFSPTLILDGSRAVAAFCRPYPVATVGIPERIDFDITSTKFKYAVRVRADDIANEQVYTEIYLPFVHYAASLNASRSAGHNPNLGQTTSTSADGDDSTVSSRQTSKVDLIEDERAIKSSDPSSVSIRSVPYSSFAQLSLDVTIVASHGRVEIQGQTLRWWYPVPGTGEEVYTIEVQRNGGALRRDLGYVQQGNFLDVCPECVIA

OC(Cn1cncn1)(Cn1cncn1)c1ccc(F)cc1F [Fluconazole, fluconazole, reference compound]
lung CFU compared to vehicle ([1]; 14 days of treatment): significant difference among CFU recovered from the lungs; also recorded: slightly reduced lung CFU
brain dissemination / CFU recovered from the brain ([1]; 14 days): did not prevent C. neoformans brain dissemination
Lung (CFU/mL) ([1]; day 6 post infection, 10 mg/kg/day each, 10 mg/kg/day): 60000 CFU/mL and 120000 CFU/mL and 92000 CFU/mL

CN1C[C@H](NS(=O)(=O)c2cc(Cl)ccc2Cl)C[C@H]1CO [Hit 13]
IC50 [2]: 2 µM
LD50 (lethal dose 50) [3]: 217.3 µM

CN1C[C@H](Nc2nc(C(C)(C)C)nc3c2cnn3C)C[C@H]1CO [Hit 14]
IC50 [2]: 1 µM
LD50 (lethal dose 50) [3]: 357 µM

CCCCCCCCCCCCCCCCC(O)C(=O)NC(COC1OC(CO)C(O)C(O)C1O)C(O)C=CCCC=C(C)CCCCCCCCC (centres unmarked) [fungal glucosylceramide, OH-Δ8,9-methyl-glucosylceramide]
hydrolysis by Sgl1 [4]: unable to detect hydrolysis

B1: Cerezyme: recombinant human glucosylceramidase (Genzyme Corporation) (protein, chains of the INN, looked up)
chain: ARPCIPKSFGYSSVVCVCNATYCDSFDPPTFPALGTFSRYESTRSGRRMELSMGPIQANHTGTGLLLTLQPEQKFQKVKGFGGAMTDAAALNILALSPPAQNLLLKSYFSEEGIGYNIIRVPMASCDFSIRTYTYADTPDDFQLHNFSLPEEDTKLKIPLIHRALQLAQRPVSLLASPWTSPTWLKTNGAVNGKGSLKGQPGDIYHQTWARYFVKFLDAYAEHKLQFWAVTAENEPSAGLLSGYPFQCLGFTPEHQRDFIARDLGPTLANSTHHNVRLLMLDDQRLLLPHWAKVVLTDPEAAKYVHGIAVHWYLDFLAPAKATLGETHRLFPNTMLFASEACVGSKFWEQSVRLGSWDRGMQYSHSIITNLLYHVVGWTDWNLALNPEGGPNWVRNFVDSPIIVDITKDTFYKQPMFYHLGHFSKFIPEGSQRVGLVASQKNDLDAVALMHPDGSAVVVVLNRSSKDVPLTIKDPAVGFLETISPGYSIHTYLWHRQ
9-methyl ceramide ([5]; Cerezyme 10 μg): 221.543 pmol/mL and 250.417 pmol/mL and 226.634 pmol/mL and 267.483 pmol/mL
9-methyl ceramide ([5]; Cerezyme 50 g (so in the source)): 243.428 pmol/mL and 279.737 pmol/mL and 384.828 pmol/mL and 393.256 pmol/mL
hydrolysis of fungal glucosylceramide ([5]; positive control, pH 5.5, 37 °C): readily hydrolyzed fungal glucosylceramide
